Reference: PubChem BioAssay AID504322 (Emory University Molecular Libraries Screening Center, 2011)
Active and inactive are the calls of the source. No rule for the calls is given here.

Tested on: CHOP reporter cell assay, percent of control
Assay: CHOP reporter inhibitor potency, dose response, cell-based (AID 504322);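 also: CHO cells carrying a CHOP reporter stimulated with tunicamycin to induce ER stress; potency is for inhibition of the stress-induced reporter signal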

SMILES	IC50
COc1cc(/C=C(/C#N)c2nc3ccccc3c(=O)[nH]2)ccc1O	> 10 µM (inactive)
COc1cccc(-c2nnc(NC(=O)c3ccc(S(=O)(=O)N(CC(C)C)CC(C)C)cc3)o2)c1	4.13 µM
CCOC(=O)c1ccc(NC(=O)c2nc[nH]c2C(=O)N[C@@H](C)C(=O)OC(C)(C)C)cc1	5.92 µM (inactive)
O=C(OCn1ncc(Br)c(Br)c1=O)c1ccccc1Cl	2.84 µM
Cc1cc(C2(c3ccc(O)c(C)c3)C(=O)Nc3ccccc32)ccc1O	> 10 µM (inactive)
CCCOC(=O)c1ccc(Oc2c(-c3ccc(OCC)cc3O)n[nH]c2C)cc1	2.34 µM
Cc1cccc(NC(=O)CSc2nc(C)c(CC(=O)c3ccc(Br)cc3)c(C)c2C#N)c1C	5.95 µM (inactive)
CCOc1cc(C(=O)CSc2nnc(CNc3ccc(Cl)cc3)o2)ccc1NC(=O)CC	9.47 µM (inactive)
O=C1C(=O)c2ccc(-c3ccccc3)cc2-c2ccccc21	3.36 µM
CCN1C=CC(=C2C(=O)c3ccccc3C2=O)C=C1	1.11 µM (inactive)
OC(c1cccc(OCc2ccccc2)c1)c1nnc(-c2ccccc2)o1 (configuration not stated)	> 10 µM (inactive)
Cc1ccc(C(=O)Nc2cnc3ccccc3c2)cc1	8.6 µM (inactive)
CC(C)(C)c1ccc(C(=O)Nc2ccc(CC(=O)O)cc2)o1	< 0.16 µM
CCOC(=O)COc1ccccc1/C=C\[N+](=O)[O-]	9.51 µM (inactive)
CCCCCCCCCCCCCCCC[n+]1cccc2ccccc21	0.41 µM
Cc1ccc(C(C)C)c(OCC(=O)N/N=C/C2CCCCC2)c1	9.65 µM (inactive)
CCCCCn1c(=O)c(C(=O)Nc2nc3ccccc3[nH]2)c(O)c2ccccc21	4.96 µM
O=C(Oc1ccc(O)cc1)C12CC3CC(CC(C3)C1)C2	> 10 µM (inactive)
C#CC(=O)N(c1cccc(OC)c1)C(C(=O)NC1CCCC1)c1cccs1 (configuration not stated)	4.53 µM
O=c1[nH]c(=O)n(Cc2ccco2)c2c1C(C(F)(F)F)(C(F)(F)F)N=C(c1ccc(F)cc1)N2	6.5 µM (inactive)
Cc1cc2c(cc1C)CSC(c1c(O)ccc3ccccc13)SC2	> 10 µM (inactive)
O=C(COCC(=O)Nc1cccc(C(F)(F)F)c1)Nc1cccc(C(F)(F)F)c1	5.44 µM (inactive)
C/C(=C\c1ccco1)C1C(C#N)=C(N)Oc2n[nH]c(-c3ccc(C)cc3)c21 (configuration not stated)	> 10 µM (inactive)
C[C@H]1C[C@@H](C)C(=O)[C@@H]([C@H](O)CC2CC(=O)NC(=O)C2)C1	< 0.16 µM (inactive)
O=[N+]([O-])c1c(NCCCO)cc(Sc2nc3ccccc3s2)c2nonc12	> 10 µM (inactive)

SMILES	IC50
CCn1c(=O)c(C(=O)Nc2nc3ccccc3[nH]2)c(O)c2ccccc21	5.84 µM (inactive)
CCCCCc1c(C)nc(NCc2ccccc2)[nH]c1=O	3.65 µM
O=C(OCn1ncc(Cl)c(Cl)c1=O)c1ccc(F)cc1	3.35 µM
CC(C)Cn1c(=O)[nH]c(=O)c2c(C(F)(F)F)cc(-c3ccccc3)nc21	> 10 µM (inactive)
Cc1cc(/C=N/n2cnnc2)c(C)n1-c1ccc(OCc2ccc(Cl)cc2)cc1	0.38 µM
CC(C)(C)OC(=O)N[C@@H](Cc1ccccc1)c1nnc(S(=O)(=O)Cc2ccccc2)o1	5.59 µM (inactive)
O=C(Nc1ccccc1)C1=C(c2ccccc2)S(=O)(=O)CCS1(=O)=O	9.67 µM (inactive)
N#CC(C#N)=C1C=CC=CN1/C(=C\c1ccccc1Cl)C(=O)c1ccccc1	> 10 µM (inactive)
CC1CCN(c2nc3ccc(C(=O)O)cc3s2)CC1	0.71 µM
O=S(=O)(C/C(=C/CO)S(=O)(=O)c1ccccc1)c1ccccc1	> 10 µM (inactive)
CN1CCN(CC(=O)N2CCn3c4c(c5cc(C6CCCCC6)ccc53)CCCC42)CC1 (configuration not stated)	9.6 µM (inactive)
COC(=O)c1cc(NC(=S)Nc2cc(Cl)cc(Cl)c2)cc(C(=O)OC)c1	> 10 µM (inactive)
COc1cc(/C=C(/C#N)c2nc3ccccc3[nH]2)ccc1OCC(=O)Nc1ccccc1C(C)C	4.54 µM
Cc1ccc(OCC(=O)N2N=C(C(F)(F)F)CC2(O)C(C)(C)C)cc1C (configuration not stated)	5.25 µM (inactive)
Nc1ccc(SC(F)(F)F)cc1C(=O)c1ccccc1	4.97 µM
Cc1cc(C)n(-c2nc(N(c3ccccc3)c3ccccc3)nc(-n3nc(C)cc3C)n2)n1	9.34 µM (inactive)
Oc1ccc(Br)cc1-c1cc(-c2ccccc2F)[nH]n1	> 10 µM (inactive)
CCCCN=c1scc(-c2ccc3c(c2)NC(=O)CO3)n1N=C1CCCC1	8 µM (inactive)
Cc1cccc(Nc2nc(N)c([N+](=O)[O-])c(N3CC(C)CC(C)C3)n2)c1 (configuration not stated)	> 10 µM (inactive)
CC(=O)OCCCNc1cc(Sc2ccc(Cl)cc2)c2nonc2c1[N+](=O)[O-]	> 10 µM (inactive)
O=C(COc1ccc(Cl)cc1Cl)NCCC1=CCCCC1	7.77 µM (inactive)
O=[N+]([O-])c1ccc(-c2nn(-c3ccccc3)cc2/C=N/n2c(-c3cccs3)n[nH]c2=S)cc1	> 10 µM (inactive)
CCOC(=O)c1c(C)[nH]c(C(=O)COC(=O)c2[nH]c(C)c(C(C)=O)c2C)c1C	> 10 µM (inactive)
S=C(NCCc1ccc(Cl)cc1)Nc1ccc(Cl)cc1Cl	9.93 µM (inactive)
CCCOc1ccc(Cc2c(Cl)nc(SC)nc2NC)cc1	8.18 µM (inactive)

SMILES	IC50
O/N=C(\c1ccc(Cl)cc1Cl)c1ncc(C(F)(F)F)cc1Cl	2.2 µM (inactive)
Cc1ccc(-c2nn(CC(=O)NCc3cc(-c4nn(C)c(=O)c5ccccc45)ccc3C)c(=O)c3ccccc23)cc1	9.88 µM (inactive)
CC(C)CCn1c(=O)c(C(=O)N/N=C/c2cccc(F)c2)c(O)c2ccccc21	2.97 µM
CCCCCc1c(C)nc(Nc2ccccc2)[nH]c1=O	9.72 µM (inactive)
CC(C)C[C@H](NC(=O)OC(C)(C)C)c1nnc(SCC(=O)Nc2ccc(Br)cc2)o1	5.57 µM (inactive)
Cc1cccc(NC(=S)NC(NC(=O)OCc2ccccc2)C(Cl)(Cl)Cl)c1 (configuration not stated)	9.44 µM (inactive)
O=c1c(Br)c(Br)cnn1-c1ccccc1	4.97 µM (inactive)
CCCCCCCCCS(=O)(=O)N/N=C/c1cccc([N+](=O)[O-])c1	3.9 µM (inactive)
O=S(=O)(NCC(Nc1ccc(Cl)cc1)c1ccccc1)c1ccc(Cl)cc1 (configuration not stated)	6.69 µM (inactive)
COc1ccc(C(=O)Nc2nnc(-c3ccco3)s2)cc1	8.58 µM (inactive)
O=C1CC(Sc2nnnn2-c2ccccc2)C(=O)N1c1cccc(Cl)c1 (configuration not stated)	> 10 µM (inactive)
O=C1/C(=C/c2ccncc2)SC(=S)N1C1CCS(=O)(=O)C1 (configuration not stated)	9.91 µM (inactive)
CC[n+]1c(/C=C2\Sc3ccccc3N2C)ccc2cccc(C)c21	> 10 µM (inactive)
O=C1NC[C@@H](Cc2cccc3ccccc23)N(CCc2cc(C(F)(F)F)cc(C(F)(F)F)c2)C1=O	9.02 µM (inactive)
Cc1ccc(N=C2SC(C(=O)Nc3ccc(OC(F)(F)F)cc3)C(N)=C2C(=O)Nc2c(C)cc(C)cc2C)cc1 (configuration not stated)	> 10 µM (inactive)
Cc1ccc(C(C(=O)NCc2ccco2)N(C(=O)CNC(=O)c2cccs2)c2c(C)cccc2C)cc1 (configuration not stated)	> 10 µM (inactive)
CC(C)Cc1ccc(C(C)C(=O)Nc2nccs2)cc1 (configuration not stated)	> 10 µM (inactive)
CCCCn1c(N2CCC(Cc3ccccc3)CC2)nc2c1c(=O)[nH]c(=O)n2C	6.06 µM (inactive)
COC(=O)c1c(NC(=O)Nc2ccc(Cl)cc2)sc(C)c1C	9.33 µM (inactive)
Cc1ccn2cc(-c3cc4ccccc4oc3=O)nc2c1	9.15 µM (inactive)
CCOC(=O)C(NC(=O)Nc1cccc(C)n1)(OCC(F)(F)F)C(F)(F)F (configuration not stated)	> 10 µM (inactive)
O=C(/C=C/c1cccc(C(F)(F)F)c1)Nc1cccc(C(F)(F)F)c1	2.49 µM (inactive)
Cc1ccccc1CS(=O)(=O)c1nnc([C@H](Cc2ccccc2)NC(=O)OC(C)(C)C)o1	4.01 µM
Cc1nn(Cc2c(Cl)cccc2Cl)c(C)c1NC(=O)c1cn(-c2ccccc2)nc1-c1ccccc1	4.8 µM
Cc1ccc(C)c(NC(=S)NC(NC(=O)/C=C/c2ccccc2)C(Cl)(Cl)Cl)c1 (configuration not stated)	9.63 µM (inactive)

SMILES	IC50
COc1ccc(C(=O)/C=C/C(=O)N(CC(=O)NC2CCCCC2)Cc2cccs2)c(O)c1	9.94 µM (inactive)
CCOc1cc(CNc2ccc(O)cc2)ccc1OCc1ccc(Cl)cc1Cl	1.72 µM
C=C1C(=O)C=C2CN(C(=O)c3ccccc3)[C@@](Cc3ccc(F)cc3)(C(=O)OC)[C@@H]12	1.16 µM
CCc1ccc(/C=C2\SC(=S)N(CCCC(=O)Nc3ccccn3)C2=O)cc1	0.16 µM
Cc1cc(C)cc(NC(=O)/C(C#N)=C/c2cn(CC(=O)NCc3ccco3)c3ccccc23)c1	1.17 µM
Clc1ccc2c(N/N=C/c3ccc(Br)cc3)ccnc2c1	9.92 µM (inactive)
COC(=O)[C@@H]1[C@@H](C(=O)OC)C2(c3ccccc3-c3ccccc32)N(c2ccc(Cl)cc2)N1C#N	4.53 µM
CC(C)(C)c1ccc(C(O)CCCN2CCC(C(O)(c3ccccc3)c3ccccc3)CC2)cc1 (configuration not stated)	4.12 µM (inactive)
CC1CCCC(NC(=O)COC(=O)/C=C/c2ccc3c(c2)OCO3)C1C (configuration not stated)	> 10 µM (inactive)
CCC(C)(C)c1ccc(Oc2ccc(N)cc2)cc1	< 0.16 µM
COc1ccc(OCc2cccc(C(=O)Nn3cc([N+](=O)[O-])cn3)c2)cc1	0.85 µM
Cc1ccc(C(C(=O)NC2CCCCC2)N(C(=O)Cc2c[nH]c3ccccc23)c2ccccc2C)o1 (configuration not stated)	> 10 µM (inactive)
Cc1cccc(N=Nc2c(N)n[nH]c2-c2ccc(Cl)cc2)c1	9.41 µM (inactive)
Cc1ccc(Nc2nc(N)nc(CN3CCN(c4ccccc4)CC3)n2)cc1Cl	8.47 µM
CCN1/C(=C/C=C/C=C/c2sc3ccccc3[n+]2CC)Sc2ccccc21	0.87 µM (inactive)
CC(C)CCN(C(=O)Cc1ccc(Cl)c(Cl)c1)c1c(N)n(Cc2ccccc2)c(=O)[nH]c1=O	5.74 µM (inactive)
Cc1ccc(-c2nc(C(Cl)Cl)c3ccccc3n2)cc1	2.08 µM
Cc1cc(C(=O)N/N=C/c2ccc(-c3cccc(Cl)c3Cl)o2)n[nH]1	5.27 µM (inactive)
OC1(c2cccc(C(F)(F)F)c2)CCN(c2ncnc3c2[nH]c2ccc(F)cc23)CC1	4.54 µM (inactive)
Oc1ccc(Oc2ccc3c(C(F)(F)F)cc(C(F)(F)F)nc3n2)cc1	9.36 µM (inactive)
Nc1cc(Cl)ccc1Oc1ccc(Cl)cc1	4.67 µM (inactive)
CCOc1cc(S(=O)(=O)Nc2ccccc2CC)ccc1Cl	7 µM (inactive)
